The text below walks through data of patent US20040081626A1, “Inhalation particles” (priority 1999, published 2004).

Holding throughout (format): physicochemical
Data set [1] in a line: Particle size analysis by electrical low pressure impactor (ELPI), measured gravimetrically. Conditions: mass size distribution, dilution ratio 1:10. The protocol: Referring now to FIG. 1b, the particle size distribution was measured by an electrical low pressure impactor (12) (ELPI) connected to a vacuum (13). The particles exiting the tubular tube were passed into a diluter (10), with a dilution ratio of 1:10, before entering the ELPI. Exhaust gas exit (11) was arranged in the diluter. To minimize temperature gradient, and thus to reduce the moisture condensation, the diluter, the line to the diluter and the gas line into the diluter were layered with heating elements, which were kept at a temperature higher than that of the solution dew point. […] It is shown that a narrow size distribution within the range of aerodynamic particle size of interest, i.e. at around 1-5 μm, was obtained.

Data set [2] in a line: Particle crystallinity and polymorphism analysis by X-ray powder diffraction. Conditions: for FWHMav: broadening of diffraction maxima positioned at 11.3° and 18.4°. The protocol:
Crystallinity and polymorphism of the sample was studied by X-ray powder diffraction (Diffractometer D500, Siemens GmbH, Karlsruhe, Germany). A copper target X-ray (wavelength 0.1541 nm) tube was operated with the power of 40 kV×40 mA. For x-ray powder diffraction analysis, 10 mg of the sample was mounted to a specific cylindrical single crystal mini sample stage, which has a diameter of 10 mm and height of approximately 1 mm. […] The patterns obtained were identical. There were not significant differences in peak positions and additional peaks were not observed. […] The relative degree crystallinity of the powder was also determined based on the x-ray powder diffraction patterns. It is noticed that the powder was well crystallised. The maximum intensities were sharp and well above background intensities. The estimation was based on the broadening of the diffraction maxima (FWHM-values) positioned at 11.3° and 18.4°. It is seen that the relative degree of crystallinity of the powder is 21% higher than that of the reference powder.

The nature of data set [3]: Particle shape and surface structure by FE-SEM. Conditions: 2 kV. The text has this: Referring now to FIG. 1c, individual particles were collected on the surface of a holey carbon film TEM grid (14) connected to a vacuum (15) after particle collection. The morphology of the particles were then imaged using a field emission low voltage scanning electron microscope (FE-SEM) operated at 2 kV acceleration voltage. FIGS. 4a to 4d are scanning electron microscope images of the powder (magnification ×20000 in FIGS. 4b, 4c, 4d and ×23000 in FIG. 4a).

Take `CCC(=O)OCC(=O)[C@@]1(OC(=O)CC)[C@@H](C)C[C@H]2[C@@H]3CCC4=CC(=O)C=C[C@]4(C)[C@@]3(Cl)[C@@H](O)C[C@@]21C` [Obtained beclomethasone dipropionate powder]: the “aerodynamic particle size distribution” value in data set [1] is 1-5 μm. The same compound displayed an FWHMav in data set [2] of 0.26 °. Further, in data set [2] (diffraction pattern compared to reference beclomethasone dipropionate powder), the polymorphism result was “polymorphic crystal form class I”. In data set [3], the particle diameter is given as 2-3 μm; the “particle shape and surface structure” value is given as “spherical with rough surfaces”.
The compound `CCC(=O)OCC(=O)[C@@]1(OC(=O)CC)[C@@H](C)C[C@H]2[C@@H]3CCC4=CC(=O)C=C[C@]4(C)[C@@]3(Cl)[C@@H](O)C[C@@]21C` [Reference powder, beclomethasone dipropionate, reference compound] displayed an FWHMav in data set [2] of 0.33 °.
